Measured values from article PMC8622842, “Absolute Structure Determination and Kv1.5 Ion Channel Inhibition Activities of New Debromoaplysiatoxin Analogues” (Marine Drugs, 2021).
Entries after “also recorded” stand apart in the source; their conditions may differ. Read-outs that look alike come from different tables or passages of the source.

Columns and labels:
[1] = molecular target: T1, human Kv1.5 channels (Homo sapiens, UniProt P22460); assay: Kv1.5 current inhibition, whole-cell electrophysiology in LTK cells stably expressing human Kv1.5; format: cell-based; settings: for Voltage dependence of Kv1.5 current inhibition: tested potentials -50 mV to 50 mV
T1 construct: expressed in transfected cells
T1 sequence (P22460 whole entry): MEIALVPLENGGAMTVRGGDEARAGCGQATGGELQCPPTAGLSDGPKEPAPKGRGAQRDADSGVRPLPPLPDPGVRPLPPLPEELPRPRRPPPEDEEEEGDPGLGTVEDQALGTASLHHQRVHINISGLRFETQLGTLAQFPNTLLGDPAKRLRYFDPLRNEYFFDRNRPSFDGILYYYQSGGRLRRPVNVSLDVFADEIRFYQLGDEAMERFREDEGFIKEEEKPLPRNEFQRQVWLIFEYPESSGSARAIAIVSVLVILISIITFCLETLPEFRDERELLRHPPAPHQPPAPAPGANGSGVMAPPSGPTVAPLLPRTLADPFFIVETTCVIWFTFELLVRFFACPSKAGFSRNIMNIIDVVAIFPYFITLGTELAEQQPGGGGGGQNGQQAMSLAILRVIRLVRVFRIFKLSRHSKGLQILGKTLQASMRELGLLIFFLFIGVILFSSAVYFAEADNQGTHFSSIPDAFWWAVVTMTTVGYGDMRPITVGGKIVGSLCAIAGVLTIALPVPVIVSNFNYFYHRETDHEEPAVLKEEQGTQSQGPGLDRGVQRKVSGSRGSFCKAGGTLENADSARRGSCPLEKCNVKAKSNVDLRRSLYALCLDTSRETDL
Protocol: For culturing mouse L cells lacking thymidine kinase (LTK) cells stably expressing human Kv1.5 channels (LTK/Kv1.5), 10% fetal bovine serum (FBS), 10,000 U/ml penicillin G and 10 mg/ml streptomycin were added into Dulbecco’s Modified Eagle Media (DMEM). LTK/Kv1.5 cells were cultured in a 37 °C humidified incubator set to 5% CO2. The amount of 100 μg/ml Genetic (G418) was added into the culture media to select transgenic cells. When the cells grew to 75–85% confluence, they were passaged for subsequent electrophysiological records (Supplementary Materials 1.3.1.1).
LTK cells cultured for at least 24 h could be used for currents recording. For Kv1.5 potassium current recording, the recording micropipettes were pulled with a P97 microelectrode puller (Sutter, CA, USA) with a resistance of about 3 MΩ when filling with internal solution containing the following: KCl 140 mM, MgCl2 1 mM, EGTA 5 mM, HEPES 10 mM and MgATP 1 mM (pH was adjusted to 7.25 by KOH). The bath solution contained the following: NaCl 137 mM, KCl 5.4 mM, CaCl2 1.8 mM, MgCl2 1 mM, Glucose 10 mM and HEPES 10 mM (pH was adjusted to 7.4 by NaOH). Kv1.5 currents were recorded at room temperature (22–24 °C) by PulseMaster (Version 2.65, Heka, Lambrecht, Germany) via an EPC-10 USB amplifier (Heka, Lambrecht, Germany). In order to reduce recording errors, cells with seal resistance above 1 GΩ and series resistance that was fully compensated above 80% were used. Leak compensation was used to compensate the leak current and to subtract the capacitive artifacts (Supplementary Materials 1.3.1.2).
1.3.1. Ion Channel Experiment
For culturing mouse L cells lacking thymidine kinase (Ltk−) cells stably expressing human Kv1.5 channels (Ltk−/Kv1.5), 10% fetal bovine serum (FBS), 10,000 U/ml penicillin G and 10 mg/ml streptomycin were added into Dulbecco's Modified Eagle Media (DMEM). Ltk−/Kv1.5 cells were cultured in a 37 °C humidified incubator set to 5% CO2. 100 μg/ml Genetic (G418) was added into the culture media to select transgenic cells. When the cells grew to 75% - 85% confluent, they were passaged for subsequent electrophysiological records.μ1.3.1.2.
1.3.1.2. Electrophysiology
Ltk− cells cultured for at least 24 h could be used for currents recording. For Kv1.5 potassium currents recording, the recording micropipettes were pulled with a P97 microelectrode puller (Sutter, CA, USA) with a resistance about 3 MΩ when filling with internal solution containing: KCl 140 mM, MgCl2 1 mM, EGTA 5 mM, HEPES 10 mM, MgATP 1 mM (pH was adjusted to 7.25 by KOH). The bath solution contained: NaCl 137 mM, KCl 5.4 mM, CaCl2 1.8 mM, MgCl2 1 mM, Glucose 10 mM, HEPES 10 mM (pH was adjusted to 7.4 by NaOH). Kv1.5 currents were recorded at room temperature (22–24°C) by PulseMaster (Version 2.65, Heka, Lambrecht, Germany) via an EPC-10 USB amplifier (Heka, Lambrecht, Germany).
To reduce recording errors, cells with seal resistance above 1 GΩ and series resistance was fully compensated above 80% were used. Leak compensation was used to compensate the leak current and to subtract the capacitive artifacts
Cells with amplitudes above 1 nA, series resistance less than 10 MΩ and leak compensation below 200 pA were chosen for data analysis. Kv1.5 currents were evoked by a 300 ms depolarizing pulse from -50 mV to 50 mv in 20 mV increments from a holding potential of -70 mV. The current amplitude at the end of 300-ms pulse was measured. The IC50 and Hill coefficient (n) was obtained by fitting concentration dependence data to the equation of I (%) = 1/{1+(IC50/[D]) n} in which I (%) is the percent inhibition of current (I (%) = [1-Idrug/Icontrol] ×100) at test potential and [D] represents various drug concentrations . The measured error at the end of relative short 300 ms pulse was limited and the fitted IC 50 was acceptable. For steady-state activation curves were fitted with the Boltzmann function: G/Gmax =1/{1+exp[−(V-V1/2)/k]}, where V is a membrane potential and the Nernst K + equilibrium potential EK was calculated as−80 mV. G was […]

[2] = system: Artemia salina; assay: whole plant or invertebrate; format: in vivo; settings: for Effect on brine shrimp A. salina: at 30 µM
Protocol: Brine shrimp A. salina is an important model organism for ecosystems, and because of its high sensitivity and easy availability, it can be used in laboratory settings to study toxic effects and to provide safe results. A. salina or brine shrimp cysts were cultivated in 3.2% of saline water. After aeration with normal saline, cysts were placed at temperature for 24 h and then cultured. For toxicity screening, hatched larvae were collected and introduced in saline water. Add 0.9% brine and 30 larvae with good activity to each well to produce a 96-well test culture plate. New compounds of 0.1 µM, 1 µM, 10 µM and 30 µM and DAT were added to the experimental culture plate, respectively. Dimethyl sulfoxide (Aladdin, Shanghai, China) and dichloromethane (Aladdin, Shanghai, China) were added as blank control and positive control. The survival rate of A. salina was calculated after 24 h treatment at 25 °C.
Commercially available Artemia salina (A. salina) or brine shrimp cysts were purchased and cultivated in 3.2% of saline water. Before cultivation, the saline was aerated, and then cysts were kept at room temperature for 24 h. For toxicity screening, hatched larvae were collected and introduced in saline water. Add saline water and equivalent larvae in per well of 96 wells to make test culture plate. Aplysiatoxins with 0.1 μM, 1 μM, 10 μM, 30 μM was added to test culture plate, while DMSO and dichloromethane were added as blank control test and positive control separately. After 24 h in 25 °C, the percent of survival of A. salina was calculated.
Table S1.3.2.1. Effect of compounds 1-4 to Artemia salina (A. salina) . A. salina were treated with indicated concentration (0.1 µM, 1 µM, 10 µM, 30 µM) of dichloromethane (DCM), debromoaplysiatoxin (DAT), oscillatoxin J, oscillatoxin K, oscillatoxin L, oscillatoxin M, Methylenechloride, Control for 24 h. The percentage of A. salina with all different kinds of […]
Compounds Percentage of Survival of Artemia salina after 24 h (μM) […]
Figure S1.3.2.1. Effect of debromoaplysiatoxin to Artemia salina (A. salina). […]
(also on this page, place not known: compound s , , , , J K L M . USA) -1.5 -1.0 -0.5 0.0 0 20 40 60 80 100 LogCon.
(1 picture or pasted object on this page, not shown here)

[3] = system: phosphor PKCδ; parameters: method as in PMID 35521179; settings: HepG2, 10 µM; cited from earlier work
[4] = system: Kv1.2 channel; parameters: method as in PMID 18313714; settings: read-out: IC50 against Kv1.2 channel; cited from earlier work

SMILES	IC50 [1] [nM]	Voltage dependence of Kv1.5 current inhibition [1]	Percentage of Survival of Artemia salina after 24 h ([2]; 0.1 µM, 24 h) [%]	Percentage of Survival of Artemia salina after 24 h ([2]; 1 µM, 24 h) [%]	Percentage of Survival of Artemia salina after 24 h ([2]; 10 µM, 24 h) [%]	Percentage of Survival of Artemia salina after 24 h ([2]; 30 µM, 24 h) [%]	Effect on brine shrimp A. salina [2]	Concentration at which survival of Artemia salina began to be affected ([2]; 24 h) [nM]	IC50 ([2]; Artemia salina, 0.05-0.5 µM, read-out: IC50 of brine shrimp toxicity (survival of A. salina)) [nM]	Expression of phosphor PKCδ [3]	Effect on Kv1.5 ([1]; at 10 µM)	IC50 ([1]; current at end of 300 ms pulse at 50 mV, 0.3-10 µM, mean ± SEM of 3 to 5 measurements, read-out: IC50 of Kv1.5 current inhibition) [nM]	IC50 [4] [nM]
CO[C@@H](CC[C@H](C)[C@H]1O[C@]23C[C@H](OC(=O)C[C@H]([C@@H](C)O)OC(=O)[C@H](O)C(=C(C)CC2(C)C)O3)[C@@H]1C)c1cccc(O)c1 [Compound 2, oscillatoxin K]	3860 ± 1030	voltage dependently inhibited	96.63±0.05	96.05±0.07	95.23±0.19	89.97±7.12	no apparent effect						
ClCCl [Methylenechloride, dichloromethane, reference compound]			0	0	0	0							
CO[C@@H](CC[C@H](C)[C@H]1O[C@@]23C[C@H](OC(=O)C[C@H]([C@@H](C)O)OC(=O)C[C@](O)(O2)[C@H](C)CC3(C)C)[C@@H]1C)c1cccc(O)c1 [Compound 5, debromoaplysiatoxin]			87.19±0.74	2.96±2.1	0	0		100	340 ± 36	strongly upregulating			
CO[C@@H](CC[C@H](C)[C@H]1O[C@@]23C[C@H](OC(=O)C[C@H]([C@@H](C)O)OC(=O)C[C@](O)(O2)[C@@](C)(O)CC3(C)C)[C@@H]1C)c1cccc(O)c1 [Compound 3, oscillatoxin L]	> 10000		97.74±1.60	98.89±1.57	96.37±0.28	73.38±9.64	no apparent effect				minimum effects; also recorded: no apparent Kv1.5 inhibition activity		
CO[C@@H](CC[C@H](C)[C@H]1O[C@@]23C[C@H](OC(=O)C[C@H]([C@@H](C)O)OC(=O)/C=C(\O2)C(C)=CC3(C)C)[C@@H]1C)c1cccc(O)c1 [Compound 1, oscillatoxin J]		voltage dependently inhibited	96.62±0.37	95.87±0.7	95±1.52	93.61±5.11	no apparent effect					2610 ± 910	
COC(CCC(C)C1OC23CC(OC(=O)CC(C(C)O)OC(=O)CC(C)(O2)C(=O)CC3(C)C)C1C)c1cccc(O)c1 (stereo not shown) [Compound 4, oscillatoxin M]	3790 ± 1010	voltage dependently inhibited	95.13±1.09	96.29±0.11	96.15±0.12	82.27±6.13	no apparent effect						
C=CC/C=C\C=C/[C@H]1O[C@H]2C[C@H]3O[C@H]4CC[C@H]5O[C@H]6C[C@@]7(C)O[C@@]8(C)[C@@H](O)C[C@H](CCCO)O[C@@H]8C[C@@H]7O[C@@H]6C[C@@H]5O[C@]4(C)C[C@]3(C)O[C@@H]2C=C[C@]1(C)O [Gambierol]													34.5 ± 1.5
